Data: patent US7569569B2, “Pyrrolo[2,3-d]pyrimidine compounds” (Pfizer Inc., priority 1998, dated 2009)

Compound	melting point
c1nc(N2CCCCCCC2)c2cc[nH]c2n1 [Example 17, 4-Azocan-1-yl-7H-pyrrolo[2,3-d]pyrimidine]	225 to 226 °C
CCCC1CCCCN1c1ncnc2[nH]ccc12 (stereo not drawn) [Example 24, 4-(2-Propyl-piperidin-1-yl)-7H-pyrrolo[2,3-d]pyrimidine]	106 to 107 °C
c1nc(N2CCCCCC2)c2cc[nH]c2n1 [Example 27, 4-Azepan-1-yl-7H-pyrrolo[2,3-d]pyrimidine]	210 °C
Clc1c[nH]c2ncnc(N3CCCC4CCCCC43)c12 (stereo not drawn) [Example 39, 1-(5-Chloro-7H-pyrrolo[2,3-d]pyrimidin-4-yl)-decahydro-quinoline]	190 to 192 °C
Cc1cc2c(N(C)C3CCCCC3)ncnc2[nH]1 [Example 59, Cyclohexyl-methyl-(6-methyl-7H-pyrrolo[2,3-d]pyrimidin-4-yl)-amine]	221 °C (dec.)

The remaining lines, values ahead:

melting point	Compound
170 to 172 °C	Clc1c[nH]c2ncnc(N3CCCCC3)c12 [Example 61, 5-Chloro-4-piperidin-1-yl-7H-pyrrolo[2,3-d]pyrimidine]
193 °C	Clc1c[nH]c2ncnc(N3CCC4CCCCC43)c12 (stereo not drawn) [Example 62, 5-Chloro-4-(octahydro-indol-1-yl)-7H-pyrrolo[2,3-d]pyrimidine]
209 to 211 °C	N#Cc1c[nH]c2ncnc(N3CCCCC3)c12 [Example 78, 4-Piperidin-1-yl-7H-pyrrolo[2,3-d]pyrimidine-5-carbonitrile]
179 to 181 °C	C#Cc1c[nH]c2ncnc(N3CCCCC3)c12 [Example 79, 5-Ethynyl-4-piperidin-1-yl-7H-pyrrolo[2,3-d]pyrimidine]
